Data: US20230133958A1, “COMPOUNDS USEFUL IN MODULATING EGFR AND PI3K” (Mekanistic Therapeutics LLC, priority 2021, published 2023)

Biological target: P13Kδ (Homo sapiens, UniProt O00329)
Test: Z'-LYTE / Adapta biochemical kinase assay, PI3Kδ
Description: The Z′-LYTE® biochemical assay employs a fluorescence-based, coupled-enzyme format and is based on the differential sensitivity of phosphorylated and non-phosphorylated peptides to proteolytic cleavage. The peptide substrate is labeled with two fluorophores—one at each end—that make up a FRET pair. In the primary reaction, the kinase transfers the gamma-phosphate of ATP to a single tyrosine, serine or threonine residue in a synthetic FRET-peptide. In the secondary reaction, a site-specific protease recognizes and cleaves non-phosphorylated FRET-peptides. Phosphorylation of FRET-peptides suppresses cleavage by the Development Reagent. […] A ratiometric method, which calculates the ratio (the Emission Ratio) of donor emission to acceptor emission after excitation of the donor fluorophore at 400 nm, is used to quantitate reaction progress.
A significant benefit of this ratiometric method for quantitating reaction progress is the elimination of well-to-well variations in FRET-peptide concentration and signal intensities. […]
Both cleaved and uncleaved FRET-peptides contribute to the fluorescence signals and therefore to the Emission Ratio. The extent of phosphorylation of the FRET-peptide can be calculated from the Emission Ratio. […]

P13Kδ, sequence (O00329 whole entry, stated change not applied): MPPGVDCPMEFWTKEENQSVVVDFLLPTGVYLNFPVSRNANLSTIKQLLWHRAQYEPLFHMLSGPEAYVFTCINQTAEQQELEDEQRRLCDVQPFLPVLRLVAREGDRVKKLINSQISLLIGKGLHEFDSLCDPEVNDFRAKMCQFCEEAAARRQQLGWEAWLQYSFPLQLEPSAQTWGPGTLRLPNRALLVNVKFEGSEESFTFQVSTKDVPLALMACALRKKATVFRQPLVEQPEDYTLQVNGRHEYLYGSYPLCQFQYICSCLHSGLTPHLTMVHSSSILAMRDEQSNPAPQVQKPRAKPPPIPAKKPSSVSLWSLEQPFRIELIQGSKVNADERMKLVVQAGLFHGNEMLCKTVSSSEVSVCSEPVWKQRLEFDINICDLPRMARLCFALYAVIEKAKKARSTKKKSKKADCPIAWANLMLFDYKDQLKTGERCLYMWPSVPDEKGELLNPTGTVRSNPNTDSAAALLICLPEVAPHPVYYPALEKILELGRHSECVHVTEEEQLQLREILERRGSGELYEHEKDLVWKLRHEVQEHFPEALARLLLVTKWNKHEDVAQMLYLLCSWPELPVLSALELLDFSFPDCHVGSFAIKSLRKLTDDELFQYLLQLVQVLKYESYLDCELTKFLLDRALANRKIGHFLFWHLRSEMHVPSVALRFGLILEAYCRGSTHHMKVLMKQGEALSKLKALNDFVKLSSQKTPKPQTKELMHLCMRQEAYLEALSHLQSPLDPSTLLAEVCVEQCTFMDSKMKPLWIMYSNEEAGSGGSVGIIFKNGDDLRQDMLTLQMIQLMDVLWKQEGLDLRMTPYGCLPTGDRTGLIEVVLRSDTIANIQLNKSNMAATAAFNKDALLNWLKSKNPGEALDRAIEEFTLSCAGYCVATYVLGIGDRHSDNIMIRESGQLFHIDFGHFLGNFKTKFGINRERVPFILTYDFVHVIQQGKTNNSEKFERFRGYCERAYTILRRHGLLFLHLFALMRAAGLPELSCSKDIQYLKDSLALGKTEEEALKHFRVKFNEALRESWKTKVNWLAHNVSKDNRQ
P13Kδ, sequence (P27986 2-724 partner limits assumed): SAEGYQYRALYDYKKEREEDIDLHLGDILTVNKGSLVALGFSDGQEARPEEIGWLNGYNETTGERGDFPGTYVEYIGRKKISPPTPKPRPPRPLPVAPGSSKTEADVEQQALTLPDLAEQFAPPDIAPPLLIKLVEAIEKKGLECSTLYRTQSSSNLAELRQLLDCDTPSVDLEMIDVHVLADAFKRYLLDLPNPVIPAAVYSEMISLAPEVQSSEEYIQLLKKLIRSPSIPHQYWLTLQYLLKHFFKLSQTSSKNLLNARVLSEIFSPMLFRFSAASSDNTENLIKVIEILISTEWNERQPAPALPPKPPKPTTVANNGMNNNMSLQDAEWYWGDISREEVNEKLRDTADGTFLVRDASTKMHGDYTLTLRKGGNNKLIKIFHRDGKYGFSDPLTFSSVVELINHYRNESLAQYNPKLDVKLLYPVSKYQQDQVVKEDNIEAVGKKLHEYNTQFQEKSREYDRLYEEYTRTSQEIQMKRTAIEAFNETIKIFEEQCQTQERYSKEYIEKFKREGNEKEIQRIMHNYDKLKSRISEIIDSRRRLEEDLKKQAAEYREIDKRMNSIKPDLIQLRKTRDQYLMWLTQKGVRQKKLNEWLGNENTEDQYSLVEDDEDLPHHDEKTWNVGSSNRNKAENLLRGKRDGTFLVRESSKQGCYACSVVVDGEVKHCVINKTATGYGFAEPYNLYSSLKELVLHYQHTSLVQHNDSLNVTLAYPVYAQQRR

For `CS(=O)(=O)Nc1cc(-c2ccc3ncnc(Nc4cccc(Cl)c4F)c3c2)cnc1Cl` [Compound 6, N-[2-chloro-5-[4-(3-chloro-2-fluoro-anilino)quinazolin-6-yl]-3-pyridyl] methanesulfonamide], the IC50 was at most 2 nM.
